# Data from US20080269326A1, “Use of 1-Phenyl-3-Dimethylamino-propane Compounds for Treating Neuropathic Pain” (GRUENENTHAL GmbH, priority 2007, published 2008).
# Key:
# [1] = system: cold allodynia in Bennett animals; assay: Bennett model (chronic constriction injury), cold allodynia on 4° C. cold metal plate; format: in vivo, rat; details: for ED50: Rattus norvegicus
# Description: The effectiveness in treating neuropathic pain was investigated in the Bennett model (chronic constriction injury; Bennett and Xie, 1988, Pain 33: 87-107).
# (§1) Sprague-Dawley rats weighing 140-160 g are provided with four loose ligatures of the right sciatic nerve under nembutal narcosis. The animals develop a hypersensitivity in the paw innervated by the damaged nerve, which after a healing phase of one week is quantified over about four weeks by means of a 4° C. cold metal plate (cold allodynia). The animals are observed for two minutes on this plate and the number of retractive movements of the damaged paw are measured. The effect of the substance is determined with reference to the base value before application of the substance, at four different times over a period of one hour(15, 30, 45 and 60 minutes after application) and the resultant area under the curve (AUD) as well as the inhibition of cold allodynia at the individual measurement points is expressed in percent effect with reference to the vehicle control (AUD) and to the initial value (individual measurement points). The cohort size is n=10.
# [2] = system: tactile allodynia in Chung animals; assay: Chung model (spinal nerve ligature), tactile allodynia, electronic von Frey; format: in vivo; details: Rattus norvegicus, ip, 0.5 h; rats, i.p., 30 minutes after administration
# Description: Spinal nerve ligatures according to Kim & Chung (1992 Pain 50, 355-363) were applied to the left L5/L6 spinal nerves of male Spraque-Dawley rats. Four to six days after the operation the tactile threshold baseline (withdrawal threshold) was measured on the ipsilateral and contralateral rear paw by an electronic von Frey anaesthesiometer (IITC Life Science, USA). After the test and measurement of the baseline, morphine, gabapentin and some of the aforementioned compounds used according to the invention were administered. The tactile withdrawal thresholds were measured 30 minutes after the administration. The results are expressed as ED50 and % maximal possible effect (% MPE) on the ipsilateral side, in which the baseline is taken as 0% and the withdrawal threshold of a control group is taken as 100% MPE.
# [3] = system: mechanical hyperalgesia in diabetic animals; assay: Streptozotocin diabetic neuropathy, mechanical hyperalgesia (Randall and Sellito); format: in vivo, rat; details: diabetic rats; for ED50: Rattus norvegicus, ip, i.p., read-out: Mechanical hyperalgesia ED50 (95% confidence region)
# Description: Male Sprague-Dawley rats weighing 160-180 g received an intra-peritoneal injection of streptozotocin (75 mg/kg body weight) dissolved in pH 4.6 citrate buffer. One week later diabetic animals were identified by measuring the blood glucose level, and those with a blood glucose level of ≧17 mM were included in the study. Three and four weeks after administration of streptozotocin the mechanical reaction threshold was measured in diabetic animals by the method of Randall and Sellito (1957 Arch. Int. Pharmacody. […]:409-419) before (pre-test) and at various times after administration of the test substance or vehicle (post-test). […] The maximum pressure exerted on the rear paw was 250 g. The end point of the mechanical reaction threshold in grams was determined based on the reaction of the animal (withdrawal of the rear paw, vocalisation or evasive reaction). The size of the cohort in the individual dose stages was n=10. The maximum possible response in percent (% MPE=% of maximum possible effect) was calculated according to the formula:
# % MPE=(post-test−pre-test)/(250−pre-test)×100.
# ED50 values (dose at which 50% maximum inhibition occurred) were determined by regression analysis from the % MPE values at the time of the maximum effect.
# [4] = system: cold allodynia in morphine-tolerant Bennett animals; assay: Bennett model cold allodynia in morphine-tolerant animals; format: in vivo, rat
# Description: as §1
# The underlying question is the action of a test substance having a presumably opioid action mechanism in patients who are tolerant or treatment-resistant to morphine. […] The action of test substances in naive (non-morphine-tolerant) animals and morphine-tolerant animals is compared in Table 4. […] Morphine [10 mg/kg i.p.], Compound 9 [10 and 21.5 mg/kg i.p.], Compound 10 [0.46 and 1 mg/kg i.p.], Compound 4 [21.5 mg/kg i.p.] and Compound 11 [21.5 mg/kg i.p.] were tested analogously to Example 1.
# neuropathic pain = assay: Tests of substances together with naloxone in treating neuropathic pain; format: in vivo
structure (smiles),measurement,setting,value
"C[C@H](CN(C)C)[C@@](C)(O)c1cccc(O)c1 (racemic) [Compound 5, (1RS,2RS)-3-(3-dimethylamino-1-hydroxy-1,2-dimethylpropyl)-phenol]",ED50,"[1]; ip, rats",15 mg/kg
"C[C@@H](CN(C)C)[C@](C)(O)c1cccc(O)c1 [Compound 6, (1S,2S)-3-(3-dimethylamino-1-hydroxy-1,2-dimethylpropyl)phenol]",ED50,"[1]; ip, rats",32.6 mg/kg
same,ED50,[2],4.65 mg/kg
"CC(CN(C)C)=C(C)c1cccc(O)c1 [Compound 14, 3-(3-dimethylamino-1,2-dimethylpropenyl)-phenol]",ED50,"[1]; ip, rats",3.6 mg/kg
"CN1CC[C@]23c4c5ccc(O)c4O[C@H]2[C@@H](O)C=C[C@H]3[C@H]1C5 [Morphine, reference compound]",ED50,[3],3 mg/kg
same,Mechanical hyperalgesia Maximum effect in % MPE,[3]; 10 mg/kg i.p.,89% (10 mg/kg) % MPE
same,Cold allodynia (% AUD) Naïve animals,[1]; 10 mg/kg i.p.,78.6 % AUD
same,ED50,"[1]; ip, rats",7.1 mg/kg
same,Cold allodynia (% AUD) Morphine-tolerant animals,[4]; 10 mg/kg i.p.,−22.0 % AUD
same,anti-allodynic action (cold allodynia) in morphine-tolerant animals,[4]; i.p.,no longer exhibits any effect
same,ED50,[2],4.6 mg/kg
same,effectiveness in treating neuropathic pain with naloxone,neuropathic pain,effective
"CC[C@](O)(c1cccc(OC)c1)[C@H](C)CN(C)C (racemic) [Compound 1, (2RS,3RS)-1-dimethylamino-3-(3-methoxyphenyl)-2-methylpentan-3-ol]",ED50,"[1]; ip, rats",11.1 mg/kg
same,ED50,[2],10.1 mg/kg
COc1cccc(C2(O)CCCCC2CN(C)C)c1 (stereo not drawn) [Tramadol],ED50,[3],9.2 mg/kg
same,Mechanical hyperalgesia Maximum effect in % MPE,[3]; 21.5 mg/kg i.p.,86% (21.5 mg/kg) % MPE
"CC[C@](O)(c1cccc(OC)c1)[C@H](C)CN(C)C [Compound 3, (2R,3R)-1-dimethylamino-3-(3-methoxyphenyl)-2-methylpentan-3-ol]",ED50,"[1]; ip, rats",9.2 mg/kg
"CC[C@](O)(c1cccc(C(F)F)c1)[C@H](C)CN(C)C (racemic) [Compound 8, (2RS,3RS)-3-(difluoromethylphenyl)-1-dimethylamino-2-methylpentan-3-ol]",Cold allodynia ED50,"[1]; rats, i.p.",17.1 mg/kg
"C[C@H](CN(C)C)[C@@](C)(O)c1cccc(O)c1 [Compound 7, (1R,2R)-3-(3-dimethylamino-1-hydroxy-1,2-dimethylpropyl)phenol]",ED50,"[1]; ip, rats",11.1 mg/kg
"CC[C@@](O)(c1cccc(OC)c1)[C@@H](C)CN(C)C [Compound 2, (2S,3S)-1-dimethylamino-3-(3-methoxyphenyl)-2-methylpentan-3-ol]",ED50,"[1]; ip, rats",26 mg/kg
"NCC1(CC(=O)O)CCCCC1 [Gabapentin, reference compound]",ED50,[3],225 mg/kg
same,Mechanical hyperalgesia Maximum effect in % MPE,[3]; 464 mg/kg i.p.,80% (464 mg/kg) % MPE
same,ED50,"[1]; po, rats",214 mg/kg
same,ED50,[2],92.6 mg/kg
"CC[C@H](c1cccc(O)c1)[C@H](C)CN(C)C [Compound 10, (1S,2S)-3-(3-dimethylamino-1-ethyl-2-methylpropyl)phenol]",Cold allodynia (% AUD) Naïve animals,[1]; 0.46 mg/kg i.p.,29.0 % AUD
same,Cold allodynia (% AUD) Naïve animals,[1]; 1 mg/kg i.p.,42.7 % AUD
same,Cold allodynia (% AUD) Naïve animals,[1]; 2.15 mg/kg i.p.,59.2 % AUD
same,ED50,"[1]; ip, rats",1.2 mg/kg
same,Cold allodynia (% AUD) Morphine-tolerant animals,[4]; 0.46 mg/kg i.p.,22.9 % AUD
same,Cold allodynia (% AUD) Morphine-tolerant animals,[4]; 1 mg/kg i.p.,39.9 % AUD
same,Cold allodynia (% AUD) Morphine-tolerant animals,[4]; 2.15 mg/kg i.p.,13.0 % AUD
same,ED50,[2],1.5 mg/kg
same,effectiveness in treating neuropathic pain with naloxone,neuropathic pain,effective
